Like-named read-outs stand apart in the source and are kept apart here.
How the values were obtained:
Parkinson's disease [1] = test system: Parkinson's disease
Method: Clinical evaluation of the effect of the drug of the invention and of the treatment method was carried out using conventional UPDRS I, II and III neurological tests. These tests enabled both neuro-psychological and physical effects to be measured.
The UPDRS I test measures, on a scale of 0 to 4, mentation, behaviour and mood of the patient, taking into account the criteria of intellectual impairment, thought disorder, depression and motivation/initiative.
The UPDRS II test measures a series of sensory or motor physical tests, also on a scale of 0 to 4.
The UPDRS III test measures the motor activity of the patient, again on a scale of 0 to 4.
Zero indicates a normal state and four indicates maximum perturbation.
Clinical evaluation was based on the L-DOPA test and was carried out as follows:
The UPDRS test used is described below.
It consisted of halting the L-DOPA therapy to a zero dose 12 to 24 hours before the test.
The next day, every half hour, the condition and the clinical changes in the patient was measured during stoppage (“off” period, no L-DOPA) then the clinical changes during resumption (“on” period with L-DOPA). The time was measured using a chronometer.
This test was carried out with UPDRS measurements as described above: • motor UPDRS (Unified Parkinson's Disease Rating Scale); • UPDRS I (mental state of patient); • UPDRS II (daily life, on-off); ADL (activities of daily living); • Self-evaluation test (test carried out by the patient, verification and confirmation by physician of fluctuations in on-off periods during the day).

Parkinson's disease [2] = test system: Parkinson's disease; remark: listed apart in the source
Method: (§1) The physical symptoms studied were: tremor, axial rigidity, gait and speech. The neuro-psychological symptoms were memory and sexual activity.
(§2) Over a period of six months, nicotine patches were administered to the patient, firstly using increasing doses over the first three months to reach a dose of 102 mg per day and then by combining two types of patch, namely a patch in the form of a slow release patch (patch P) and rapid release patches (patch R). Each patch P contained 21 mg of nicotine and each patch R contained 15 mg of nicotine.

Parkinson's disease [3] = test system: Parkinson's disease; remark: listed apart in the source
Method: as §1, §2
Overall, the daily dose was 21 mg the first month and stabilized at 102 mg from the fourth month, divided into 42 mg under slow release and 60 mg under rapid release.
Concomitantly, L-DOPA was administered in a decreasing dose with time; in contrast, the bromocriptine dose was unchanged and remained at 30 mg per day over the entire treatment, as shown in Table II below.

[4] = Re-administer nicotine at 102 mg/kg/d, after a period without nicotine

CN1CCCC1c1cccnc1 (centres unmarked) [nicotine]
UPDRS I (mental state) (Parkinson's disease [1]; With nicotine treatment (6 months later), day 0 without nicotine: 10): 0
UPDRS II off (daily activity, ADL) (Parkinson's disease [1]; With nicotine treatment (6 months later), off = no L-DOPA, day 0 without nicotine: 22): 10
UPDRS II on (daily activity, ADL) (Parkinson's disease [1]; With nicotine treatment (6 months later), on = with L-DOPA, day 0 without nicotine: 13): 6
UPDRS score for the "off" periods (FIG. 2) (Parkinson's disease [1]; no L-DOPA, 30 mg bromocriptine, over nicotine treatment, except in the seventh month (nicotine interrupted)): reduction in the score
UPDRS measurements in the "on" periods (FIG. 2) (Parkinson's disease [1]; with L-DOPA (250 mg first test, 187.50 mg after six months), 30 mg bromocriptine, over nicotine treatment): constant decrease
Sexual problems and urinary dysfunction (Parkinson's disease [2]; after four months of treatment, problems present for two years): completely re-established functions
Depressive episodes (Parkinson's disease [2]; under nicotine treatment): reduced
Memory disorders (Parkinson's disease [2]; under nicotine treatment): reduced
Neuro-psychological manifestations of Parkinson's disease (Parkinson's disease [2]; within six months from commencing treatment): disappeared completely
Axial rigidity (Parkinson's disease [3]; [4]): 0
Gait (Parkinson's disease [3]; [4]): 0
Speech (Parkinson's disease [3]; [4]): 0
Tremor (Parkinson's disease [3]; [4]): 1
Axial rigidity (Parkinson's disease [3]; With nicotine treatment): 0
Gait (Parkinson's disease [3]; With nicotine treatment): 0
Speech (Parkinson's disease [3]; With nicotine treatment): 0
Tremor (Parkinson's disease [3]; With nicotine treatment, patient, concomitant L-DOPA and 30 mg/day bromocriptine, 0 = normal, 4 = maximum perturbation): 1
Axial rigidity (in words) (Parkinson's disease [3]; nicotine treatment, Table III): completely abolished
Gait and speech (in words) (Parkinson's disease [3]; nicotine treatment, Table III): normalised
Symptomatic effect of stopping administration of nicotine (Parkinson's disease [3]; stopping nicotine in the eighth month): no symptomatic effect

— US6911475B1, “Use of nicotine or its derivatives in a drug for treating neurological disease, in particular Parkinson's disease” (Assistance Publique-Hopitaux de Paris, priority 1999, dated 2005)
